Laboratory results taken from patent US7018803B2, “Inhibitors of collagen assembly” (Drexel University College of Medicine, priority 1997, dated 2006).
No end group written: not given here.

What was measured:
[1] = target: T1, type I collagen (pCcollagen I) (Homo sapiens, UniProt P02452); assay type: biochemical; settings: for inhibition of fibril assembly (in words): peptide 2.5 mM
T1 construct: made in house; host or cells: cultured human skin fibroblasts (endogenous procollagen purified from the medium, 14C-labelled)
T1 sequence (P02452 162-1218 limits assumed): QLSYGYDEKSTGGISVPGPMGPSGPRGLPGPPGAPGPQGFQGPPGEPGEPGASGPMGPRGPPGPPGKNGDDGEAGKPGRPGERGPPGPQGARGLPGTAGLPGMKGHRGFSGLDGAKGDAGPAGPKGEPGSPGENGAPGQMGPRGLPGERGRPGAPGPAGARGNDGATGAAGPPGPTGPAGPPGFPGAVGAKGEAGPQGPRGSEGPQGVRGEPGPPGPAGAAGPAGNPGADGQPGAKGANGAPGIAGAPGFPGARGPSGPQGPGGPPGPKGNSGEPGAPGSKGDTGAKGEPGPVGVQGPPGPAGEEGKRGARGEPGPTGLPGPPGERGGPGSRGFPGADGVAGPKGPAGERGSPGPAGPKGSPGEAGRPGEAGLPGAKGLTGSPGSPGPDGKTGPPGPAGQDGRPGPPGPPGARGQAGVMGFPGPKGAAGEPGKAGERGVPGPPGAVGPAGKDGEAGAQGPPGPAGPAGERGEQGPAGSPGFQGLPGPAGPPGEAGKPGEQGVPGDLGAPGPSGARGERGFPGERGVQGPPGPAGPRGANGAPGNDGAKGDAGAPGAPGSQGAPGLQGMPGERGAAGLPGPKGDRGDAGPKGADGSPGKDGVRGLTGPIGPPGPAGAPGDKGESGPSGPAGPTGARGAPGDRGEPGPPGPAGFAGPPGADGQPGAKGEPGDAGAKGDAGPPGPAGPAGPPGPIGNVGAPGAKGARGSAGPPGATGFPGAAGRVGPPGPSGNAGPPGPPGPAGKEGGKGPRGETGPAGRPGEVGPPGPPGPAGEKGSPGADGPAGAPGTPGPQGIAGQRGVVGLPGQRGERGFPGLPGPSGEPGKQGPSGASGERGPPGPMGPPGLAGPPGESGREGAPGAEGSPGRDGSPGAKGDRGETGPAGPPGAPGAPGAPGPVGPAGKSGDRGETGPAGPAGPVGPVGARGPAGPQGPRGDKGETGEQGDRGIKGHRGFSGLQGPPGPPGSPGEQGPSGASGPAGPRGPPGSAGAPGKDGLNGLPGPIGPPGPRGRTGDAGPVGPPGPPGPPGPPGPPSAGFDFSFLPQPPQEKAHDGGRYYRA
T1 sequence (P08123 80-1119 partner limits assumed): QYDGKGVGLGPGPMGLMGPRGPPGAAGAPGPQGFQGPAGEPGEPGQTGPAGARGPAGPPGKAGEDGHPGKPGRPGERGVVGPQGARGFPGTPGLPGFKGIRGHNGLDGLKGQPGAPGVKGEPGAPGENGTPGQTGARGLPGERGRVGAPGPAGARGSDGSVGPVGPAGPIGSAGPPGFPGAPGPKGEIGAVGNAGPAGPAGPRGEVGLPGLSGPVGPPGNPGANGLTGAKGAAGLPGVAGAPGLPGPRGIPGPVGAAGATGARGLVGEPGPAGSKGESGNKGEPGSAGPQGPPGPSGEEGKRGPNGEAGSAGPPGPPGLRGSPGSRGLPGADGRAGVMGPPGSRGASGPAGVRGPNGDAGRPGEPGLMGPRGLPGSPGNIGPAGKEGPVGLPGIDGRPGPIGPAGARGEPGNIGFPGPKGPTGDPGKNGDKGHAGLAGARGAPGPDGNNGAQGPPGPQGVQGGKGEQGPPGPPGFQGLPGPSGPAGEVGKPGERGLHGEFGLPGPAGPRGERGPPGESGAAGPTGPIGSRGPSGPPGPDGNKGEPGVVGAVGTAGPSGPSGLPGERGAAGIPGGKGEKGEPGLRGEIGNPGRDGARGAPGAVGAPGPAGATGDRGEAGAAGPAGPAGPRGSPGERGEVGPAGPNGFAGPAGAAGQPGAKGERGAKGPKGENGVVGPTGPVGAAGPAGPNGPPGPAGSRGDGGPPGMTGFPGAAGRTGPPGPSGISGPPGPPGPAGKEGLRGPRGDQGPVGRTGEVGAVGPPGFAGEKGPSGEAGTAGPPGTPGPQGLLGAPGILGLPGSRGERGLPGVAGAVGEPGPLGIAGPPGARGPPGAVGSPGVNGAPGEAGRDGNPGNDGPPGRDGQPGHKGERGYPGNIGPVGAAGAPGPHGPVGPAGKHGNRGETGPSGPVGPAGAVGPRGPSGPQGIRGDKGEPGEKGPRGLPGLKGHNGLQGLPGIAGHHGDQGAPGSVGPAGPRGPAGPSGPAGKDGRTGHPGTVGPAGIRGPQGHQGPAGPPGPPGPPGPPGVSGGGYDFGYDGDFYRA
Method: Assembly of collagen I into fibrils de novo was assayed under conditions employed previously (Miyahara et al., 1982, J. Biol. Chem. 257:8442–8448; Kadler et al., 1987, J. Biol. Chem. 262:15696–15701; Kadler et al., 1990, Ann. N.Y. Acad. Sci. 580:214–224; Kadler et al., 1990, Biochem. J. 268:339–343; Fertala et al., 1996, J. Biol. Chem. 271:14864–14869). In brief, ^14C-labeled type I procollagen was recovered from the medium of cultured human skin fibroblasts and was purified with two chromatographic steps to homogeneity. The type I procollagen was processed to pccollagen I by cleavage with procollagen N-proteinase purified from organ cultures of chick embryo tendons. “pCcollagen” is a partially processed procollagen which is missing the […]. The pCcollagen was then isolated on a gel filtration column. Fibril assembly was assayed in a […] reaction volume in a […] plastic centrifuge tube sealed with a plunger and containing a physiological bicarbonate buffer, […] pCcollagen I, and 15 units/ml procollagen C-proteinase purified from chick embryo tendons. Potentially inhibitory peptides were added to the reaction mixture to final concentrations of 0.5 to 2.5 mM in […] of buffer. After incubation for 0.5 to 24 hours at 37° C., the sample was centrifuged 13,000×g for 10 min. The pellet and supemate fractions were separated by electrophoresis on a 7.5% polyacrylamide gel in SDS and the gel assayed either with a phosphor storage imager (Molecular Dynamics) or by staining with colloidal Coomassie blue (Brilliant Blue, Sigma) and analysis with a densitometer (Personal Densitometer, Molecular Dynamics). Alternatively, the reaction was carried out in a sealed chamber on a microscopic slide and followed by Dark field light microscopy (Zeiss model 009).
F6 contained sequences that spanned the vertebrate collagenase cleavage site of -Gly-le- in the D4 period of the α1(I) chain. […] The peptides were added in concentrations of 2.5 mM to the system for assaying fibril formation by the cleavage of pCcollagen with C-proteinase (Miyahara et al., 1982, J. Biol. Chem. 257:8442–8448; Kadler et al., 1987, J. Biol. Chem. 262:15696–15701; Kadler et al., 1990, Ann. N.Y. Acad. Sci. 580:214–224; Kadler et al., 1990, Biochem. J. 268:339–343; Fertala et al., 1996, J. Biol. Chem. 271:14864–14869).

[2] = target: T2, α1-776/796 (telopeptide binding region of type I collagen) (Homo sapiens, UniProt P02452); test: Phage display peptide library panning, ligand α1-776/796 peptide in all three cycles; settings: ligand α1-776/796 x3
T2 construct: host or cells: synthetic peptide
Text: (§1) A comrnmercially-available phage-display peptide library was used to identify peptides that bind to the telopeptide binding region of type I collagen (i.e. amino acid residues 776–797). The library comprised phage particles having about 1.9×10^9 distinct linear peptide sequences.
(§2) For the experiments described in this Example, either type I collagen or a 22-mer synthetic peptide having the amino acid sequence of residues 776–797 of type I collagen was bound to the walls of individual wells of microtiter plates. Aliquots of the phage-display peptide library were added to and incubated with the wells. Thereafter, the microtiter wells were rinsed to remove non-specifically-binding library particles, and specifically-binding library particles were eluted using a solution comprising at least one of: • the 22-mer synthetic peptide having the amino acid sequence of residues 776–797 of type I collagen; • type I collagen; and • glycine HCl buffer having a pH of 2.2.
(§3) Eluted specifically-binding library particles were added to and incubated with microtiter plates having either type I collagen or the 22-mer synthetic peptide bound to the wells thereof, and washing and elution steps were repeated. A total of three cycles of incubation-washing-elution were performed. Following these three cycles, specifically-binding phage particles were isolated, and the amino acid sequence of the peptide encoded by each of these particles was determined by amplifying and sequencing the nucleic acid contained within the particle.
Amino acid sequences of the random peptide region carried by discrete specifically-binding phage particles are indicated in Table II, together with the identity of the ligand bound to the microtiter wells in each of the three incubation-washing-elution cycles. These isolated peptides, or peptides having no more than about fifty, preferably no more than twenty, even more preferably no more than ten, and still more preferably no more than five amino acid residues at one or both ends thereof, may be used to inhibit collagen self-assembly by contacting a collagen molecule such as a collagen triple helix, with one of these peptides.

[3] = target: T3, type I collagen (monomeric collagen, Vitrogen 100) (Bos taurus, UniProt P02453); test: Competition binding assay on microtiter plates with biotinylated telopeptides
T3 construct: purchased Collagen Biomaterials Vitrogen 100
T3 sequence (P02453 178-1191 limits assumed): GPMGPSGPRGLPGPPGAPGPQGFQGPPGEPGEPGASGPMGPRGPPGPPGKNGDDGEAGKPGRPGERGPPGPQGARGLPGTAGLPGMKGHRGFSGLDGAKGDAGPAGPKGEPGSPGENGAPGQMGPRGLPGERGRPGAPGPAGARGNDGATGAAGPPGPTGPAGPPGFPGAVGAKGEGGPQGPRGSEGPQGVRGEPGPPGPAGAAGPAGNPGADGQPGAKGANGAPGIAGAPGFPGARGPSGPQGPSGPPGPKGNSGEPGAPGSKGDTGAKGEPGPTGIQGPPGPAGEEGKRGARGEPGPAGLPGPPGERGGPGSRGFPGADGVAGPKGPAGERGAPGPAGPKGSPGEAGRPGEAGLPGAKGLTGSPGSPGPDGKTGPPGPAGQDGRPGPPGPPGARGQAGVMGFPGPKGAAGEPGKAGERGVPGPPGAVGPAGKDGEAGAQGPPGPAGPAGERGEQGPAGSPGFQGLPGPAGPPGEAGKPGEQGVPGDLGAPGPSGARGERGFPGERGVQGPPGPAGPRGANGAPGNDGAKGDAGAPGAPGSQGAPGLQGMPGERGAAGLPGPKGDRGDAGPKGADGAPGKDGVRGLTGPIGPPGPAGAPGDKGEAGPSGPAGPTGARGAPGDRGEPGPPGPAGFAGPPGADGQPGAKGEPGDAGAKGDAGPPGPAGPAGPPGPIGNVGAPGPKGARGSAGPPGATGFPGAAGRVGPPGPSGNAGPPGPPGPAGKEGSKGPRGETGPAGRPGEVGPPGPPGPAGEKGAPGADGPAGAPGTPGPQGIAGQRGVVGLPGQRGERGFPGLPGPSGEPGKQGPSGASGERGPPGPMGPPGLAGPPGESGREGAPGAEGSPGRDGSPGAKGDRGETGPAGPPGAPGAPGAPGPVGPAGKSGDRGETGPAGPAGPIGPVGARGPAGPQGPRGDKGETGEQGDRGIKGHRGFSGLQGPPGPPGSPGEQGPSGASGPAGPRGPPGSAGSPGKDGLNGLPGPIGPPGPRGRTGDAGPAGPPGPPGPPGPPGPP
Method: A collagen assembly inhibitory peptide is “biologically active” if it is capable of inhibiting collagen self-assembly in any one of the assays described herein. For example, in a high throughput assay described herein in the description of the data shown in FIGS. 8 and 9, a series of wells in a microtiter plate are coated with monomeric collagen. An amount of HCl is added to each well and the plates are dried. The plates are rinsed in buffer and bovine serum albumin (BSA) is added to block non-specific binding sites on the collagen. Samples containing labeled peptide (for example, biotinylated peptide) which is known to inhibit collagen self-assembly and unlabeled test peptide at various concentrations are premixed and are added to the wells. […] The wells are incubated for a period of time, the plates are washed and streptavidin conjugated to alkaline phosphatase is added. Incubation is continued for a further period of time following which a developing reagent is added to the wells. The amount of binding of the labeled peptide to the collagen is assessed and the degree of inhibition of binding by the test peptide is also assessed. Any test peptide which inhibits binding of the labeled peptide is isolated and is tested further for the ability to inhibit collagen self-assembly in the assays described herein in the description of FIGS. 1, 2 and 3.
To define the telopeptide binding site with a competitive assay, 96-well titiation plates (Immulon 3, Dynatech Laboratories, Inc.) were used. Seventy microliters of the solution containing […] of monomeric collagen (Vitrogen 100, Collagen Biomaterials) in 0.01 N HCl was added to each well, and the plates were dried at room temperature. The plates were rinsed with sterile phosphate buffered saline and non-specific binding sites were blocked with 1% bovine serum albumin. […] As a negative control, peptide α2-218/233 was used at concentrations from […]. […] After 2 hours of incubation, the reaction was measured with microtiter plate reader (Dynatech Laboratories) using a 405 nanometer filter. […]

[4] = target: type I collagen (Homo sapiens, UniProt P02452); test: Phage display peptide library panning, ligand type I collagen in all three cycles; assay type: binding; settings: ligand Type I Collagen x3
Sequence of type I collagen (P02452 162-1218 limits assumed): as the sequence (P02452 162-1218 limits assumed) above
Sequence of type I collagen (P08123 80-1119 partner limits assumed): as the sequence (P08123 80-1119 partner limits assumed) above
Text: as §1, §2, §3
Amino acid sequences of the random peptide region carried by discrete specifically-binding phage particles are indicated in Table II, together with the identity of the ligand bound to the microtiter wells in each of the three incubation-washing-elution cycles. […]

With GYDFGYDGDF [Peptide F9] the “inhibition of fibril assembly (in words)” value [1] was “Smaller effects”.

With DFRYRA [Peptide F10, DFRYRA] the “inhibition of fibril assembly (in words)” value [1] was “Smaller effects”.

For “YGSPHPSRPPGA (Phage Display Library Peptide)”, the “# of Isolated Particles Having this Sequence” value ([2]; eluent Type I Collagen) was 10 and the “# of Isolated Particles Having this Sequence” value ([2]; eluent α1-776/796) was 1→.

For GGGYSFGYS [F7/A], the “inhibition of fibril assembly (in words)” value [1] was “no effect on inhibition of fibril assembly”.

In the case of GYDGDFYRA [Peptide F8], the “inhibition of fibril assembly (in words)” value [1] is reported as “equally effective as the intact F3”.

For “α1-776/797: peptide with the sequence of the amino acids in positions 776 to 797 of the α1(I) chain (IAGQRGVVGLPGQRGERGFPGL)”, the “competition with binding of biotinylated C-telopeptide of the α1(I) chain (peptide F2) to type I collagen” value ([3]; 50 mM biotinylated F2, 10 to 500 mM competitor, 25° C., 12 h) was “effectively competed” and the “competition with binding of biotinylated C-telopeptide of the α2(I) chain (peptide F3) to type I collagen” value ([3]; 50 mM biotinylated F3, 10 to 500 mM competitor, 25° C., 12 h) was “effectively competed”.

For “LLPHSVSIPPDA (Phage Display Library Peptide)”, the “# of Isolated Particles Having this Sequence” value ([4]; eluent Type I Collagen) was 10.

GGGSDSGSD [F7/B] was tested, and the “inhibition of fibril assembly (in words)” value [1] was “abolished inhibitory effects”.

With “QLLEPVNLSTGP (Phage Display Library Peptide)” the “# of Isolated Particles Having this Sequence” value ([2]; eluent α1-776/796) was 7.

“TFWHLTPPRGYY (Phage Display Library Peptide)” was tested, and the “# of Isolated Particles Having this Sequence” value ([2]; eluent pH 2.2 buffer) was 3→.

“VHWWIPVSTGTA (Phage Display Library Peptide)” was tested, and the “# of Isolated Particles Having this Sequence” value ([2]; eluent pH 2.2 buffer) was 6→.

In the case of “SHALPLTWSTAA (Phage Display Library Peptide)”, the “# of Isolated Particles Having this Sequence” value ([4]; eluent α1-776/796) is reported as 10 and the “# of Isolated Particles Having this Sequence” value ([2]; eluent α1-776/796) is reported as 1.

With “YGAGFDDGDYGYRYG [SC/F3, peptide having the same amino acid residues as F3, but in a scrambled order, reference compound]” the “inhibition of fibril assembly (in words)” value [1] was “no effect”.

With “LIQPPRYSTTVS (Phage Display Library Peptide)” the “# of Isolated Particles Having this Sequence” value ([4]; eluent pH 2.2 buffer) was 10.

In the case of AKGAAGLPGVAGAPGL [Peptide F1], the “competition for the binding site with biotinylated telopeptides” value ([3]; negative control, 10 to 500 mM) is reported as “no competition” and the “inhibition of fibril assembly (in words)” value [1] is reported as “little if any inhibition”.

For GGGYDFGYDGDFYRA [Peptide F3], the “effect on fibril formation when added during the lag period” value ([1]; 2.5 mM added during the lag phase) was “inhibited fibril formation”, the “effect on fibril assembly when added during the mid-propagation phase” value ([1]; 2.5 mM added during the mid-propagation phase) was “little of any effect” and the “appearance of fibrils by Dark field light microscopy” value ([1]; 2.5 mM, sealed chamber, 37° C., 24 hours) was “No fibrils appeared”. The “effect on fibril assembly if added at or before the first one-third of the lag phase” value ([1]; added at or before the first one-third of the lag phase) was “completely prevented fibril assembly”, the “effect on fibril assembly if added after the first one-third of the lag phase” value ([1]; added thereafter) was “much less effect” and the “inhibition of fibril assembly (in words)” value [1] was “almost completely inhibited”.

With QLSYGYDEKSTGGISVP [Peptide F4] the “inhibition of fibril assembly (in words)” value [1] was “almost completely inhibited”.

In the case of GGGYDFGYD [Peptide F7], the “inhibition of fibril assembly (in words)” value [1] is reported as “equally effective as the intact F3”.

ADGPAGAPGTPGPQGIAGQRGVVGL [Peptide F6] was tested, and the “inhibition of fibril assembly (in words)” value [1] was “little if any inhibition”.
